From US11084824B2, “Pyrazolopyrimidine derivatives, preparation method thereof, and pharmaceutical composition for use in preventing or treating cancer, autoimmune disease and brain disease containing the same as an active ingredient” (Korea Research Institute of Chemical Technology, priority 2017, dated 2021)

Legend:
TMD8 cells = assay: TMD8 cell growth inhibition (WST-1, 72 hours); type: cell-based; details: Homo sapiens, TMD8 ABC type DLBCL cell line, WST-1, absorbance 450 nm
Description: TDM-8 cells, the ABC (activated B-cell) type DLBCL (diffuse large B cell lymphoma) cell line sensitive to BTK signaling, were seeded in a 96-well plate at 30% confluency. Then, the compounds of the invention were treated thereto at different concentrations. 72 hours later, WST-1 reagent was added thereto. One hour later, absorbance was measured at 450 nm by using a spectramax spectrophotometer.

[1] = biological target: Bruton's tyrosine kinase (BTK) (Homo sapiens (Human), UniProt Q06187); assay: BTK enzyme inhibition assay (Cisbio HTRF kit); type: biochemical; details: 30 minutes reaction, fluorescence 665 nm/620 nm
[2] = test system: human peripheral blood mononuclear cells (human PBMC); assay: TNFa inhibition in human PBMC monocytes (ELISA); type: cell-based; details: TNFa concentration in culture medium by ELISA, HSA/anti-HSA antibody coated plate, overnight culture, read-out: hPBMC IC50
Description: 20 ug/ml of human serum albumin (HAS) solution was prepared and distributed in a 96-well plate (200 μl/well). Reaction was induced at 4° C. for overnight and then 10% FBS solution was treated thereto (200 μl/well), followed by elimination. Lastly, 10 ug/ml of anti-HSA antibody was treated thereto (200 μl/well) for 1 hour, followed by elimination. An appropriate number of monocytes of human peripheral blood mononuclear cells (human PBMC) were distributed in the prepared 96-well plate. The target compounds were treated thereto at different concentration via serial dilution method, followed by culture for overnight. IC50 values of the compounds were determined by confirming the TNFa inhibition activity of the compounds between the maximum concentration (positive control) and the minimum concentration (negative control) of TNFa, and the results are shown in Table 8.

Bruton's tyrosine kinase (BTK), sequence (Q06187 whole entry): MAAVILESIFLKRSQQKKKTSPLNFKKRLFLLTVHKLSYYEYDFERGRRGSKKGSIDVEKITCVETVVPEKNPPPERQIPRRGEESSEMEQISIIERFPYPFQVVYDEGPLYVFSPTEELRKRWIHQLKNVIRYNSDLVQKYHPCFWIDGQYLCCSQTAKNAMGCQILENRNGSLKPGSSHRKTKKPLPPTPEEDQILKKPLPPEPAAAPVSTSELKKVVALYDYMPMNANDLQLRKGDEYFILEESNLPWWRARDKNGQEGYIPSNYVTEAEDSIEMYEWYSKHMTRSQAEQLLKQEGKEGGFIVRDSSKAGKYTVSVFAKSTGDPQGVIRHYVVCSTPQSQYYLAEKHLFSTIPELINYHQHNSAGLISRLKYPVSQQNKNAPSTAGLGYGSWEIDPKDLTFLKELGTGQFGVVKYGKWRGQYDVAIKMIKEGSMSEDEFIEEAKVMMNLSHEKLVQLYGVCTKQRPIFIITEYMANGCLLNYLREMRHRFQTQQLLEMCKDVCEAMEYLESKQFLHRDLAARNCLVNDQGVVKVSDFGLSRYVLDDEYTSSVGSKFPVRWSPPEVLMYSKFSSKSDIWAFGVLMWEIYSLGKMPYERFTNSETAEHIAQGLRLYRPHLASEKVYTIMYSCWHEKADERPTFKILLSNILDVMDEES

Row | Structure (SMILES) | IC50 [1] [nM] | IC50 (TMD8 cells) [nM] | IC50 [2] [nM]
1 | CC(=O)N1CCc2cc(Nc3ncc4c(Nc5c(C)cccc5C)nn(C)c4n3)ccc2C1 [Example 8, 1-(6-(3-(2,6-dimethylphenylamino)-1-methyl-1H-pyrazolo[3,4-d]pyrimidine-6-ylamino)-3,4-dihydroisoquinoline-2(1H)-yl)ethaneone] | 1 | 93 | 4.8
2 | Cn1nc(Nc2c(Cl)cccc2Cl)c2cnc(Nc3ccc4c(c3)CNCC4)nc21 [Example 12, N^3-(2,6-dichlorophenyl)-1-methyl-N^6 (1,2,3,4-tetrahydroisoquinoline-7-yl)-1H-pyrazolo[3,4-d]pyrimidine-3,6-diamine] | 3.75 | 89 | 2.6
3 | CC(=O)N1CCc2cc(Nc3ncc4c(Nc5c(Cl)cccc5Cl)nn(C)c4n3)ccc2C1 [Example 16, 1-(6-(3-(2,6-dichlorophenylamino)-1-methyl-1H-pyrazolo[3,4-d]pyrimidine-6-ylamino)-3,4-dihydroisoquinoline-2(1H)-yl)ethaneone] | 3 | 61 | 3.2

The remaining compounds from weak to strong by IC50 [1], led by results:

Row | IC50 [1] [nM] | Structure (SMILES) | IC50 (TMD8 cells) [nM] | IC50 [2] [nM]
4 | 100 | COc1cc2c(cc1Nc1ncc3c(Nc4c(C)cccc4C)nn(C)c3n1)CCNC2 [Example 4, N^1-(2,6-dimethylphenyl)-N^6-(7-methoxy-1,2,3,4-tetrahydroisoquinoline-6-yl)-1-methyl-1H-pyrazolo[3,4-d]pyrimidine-3,6-diamine] | 572 | 209
5 | 10 | Cc1cccc(C)c1Nc1nn(C)c2nc(Nc3ccc4c(c3)CCN(C(=O)C(F)(F)F)C4)ncc12 [Example 6, 1-(6-(3-(2,6-dimethylphenylamino)-1-methyl-1H-pyrazolo[3,4-d]pyrimidine-6-ylamino)-3,4-dihydroisoquinoline-2(1H)-yl)-2,2,2-trifluoroethaneone] | 159 | 113
